target: T1, KDM5A (Homo sapiens, UniProt P29375); experiment: KDM5A Demethylase Assay (MassSpec Assay-A); format: biochemical; settings: full length recombinant Flag tagged KDM5A, 20 nM; MassSpec readout; biotinylated H3K9me1 peptide 4.0 μM; read-out: A KDM5A MS (IC50)
T1 construct: Full length recombinant Flag tagged KDM5A protein was purified from Sf9 insect cells; Flag; made in house; host or cells: Sf9 insect cells
Procedure: Full length recombinant Flag tagged KDM5A protein was purified from […] insect cells. The demethylation reaction buffer contained 50 mM TrisCl pH 7.4, 0.01% Triton X-100, 0.025 mg/mL BSA, 1 mM ascorbate (Cat# A4034, Sigma Aldrich), 2 mM TCEP (Cat# D9779, Sigma Aldrich), 2.0 μM α-ketoglutarate (# K2010, Sigma Aldrich) and 50 μM Fe2(NH4)2(SO4)2 (Cat# F1543, Sigma Aldrich). In a 25 μL demethylation reaction system, 20 nM recombinant KDM5A and was incubated with compounds for 10 minutes in the above buffer, and then […] (# K2010, Sigma Aldrich), 4.0 μM biotinylated H3K9me1 peptide (1-21 aa), and Fe2(NH4)2(SO4)2 were added to initiate the reaction. (All reagent concentrations are final reagent concentrations.) Reactions were incubated for 30 minutes at room temperature, and then quenched by addition of an equal volume of 1% formic acid. After termination, plates were sealed and frozen at −80° C. for analysis.

T1 sequence (P29375 whole entry): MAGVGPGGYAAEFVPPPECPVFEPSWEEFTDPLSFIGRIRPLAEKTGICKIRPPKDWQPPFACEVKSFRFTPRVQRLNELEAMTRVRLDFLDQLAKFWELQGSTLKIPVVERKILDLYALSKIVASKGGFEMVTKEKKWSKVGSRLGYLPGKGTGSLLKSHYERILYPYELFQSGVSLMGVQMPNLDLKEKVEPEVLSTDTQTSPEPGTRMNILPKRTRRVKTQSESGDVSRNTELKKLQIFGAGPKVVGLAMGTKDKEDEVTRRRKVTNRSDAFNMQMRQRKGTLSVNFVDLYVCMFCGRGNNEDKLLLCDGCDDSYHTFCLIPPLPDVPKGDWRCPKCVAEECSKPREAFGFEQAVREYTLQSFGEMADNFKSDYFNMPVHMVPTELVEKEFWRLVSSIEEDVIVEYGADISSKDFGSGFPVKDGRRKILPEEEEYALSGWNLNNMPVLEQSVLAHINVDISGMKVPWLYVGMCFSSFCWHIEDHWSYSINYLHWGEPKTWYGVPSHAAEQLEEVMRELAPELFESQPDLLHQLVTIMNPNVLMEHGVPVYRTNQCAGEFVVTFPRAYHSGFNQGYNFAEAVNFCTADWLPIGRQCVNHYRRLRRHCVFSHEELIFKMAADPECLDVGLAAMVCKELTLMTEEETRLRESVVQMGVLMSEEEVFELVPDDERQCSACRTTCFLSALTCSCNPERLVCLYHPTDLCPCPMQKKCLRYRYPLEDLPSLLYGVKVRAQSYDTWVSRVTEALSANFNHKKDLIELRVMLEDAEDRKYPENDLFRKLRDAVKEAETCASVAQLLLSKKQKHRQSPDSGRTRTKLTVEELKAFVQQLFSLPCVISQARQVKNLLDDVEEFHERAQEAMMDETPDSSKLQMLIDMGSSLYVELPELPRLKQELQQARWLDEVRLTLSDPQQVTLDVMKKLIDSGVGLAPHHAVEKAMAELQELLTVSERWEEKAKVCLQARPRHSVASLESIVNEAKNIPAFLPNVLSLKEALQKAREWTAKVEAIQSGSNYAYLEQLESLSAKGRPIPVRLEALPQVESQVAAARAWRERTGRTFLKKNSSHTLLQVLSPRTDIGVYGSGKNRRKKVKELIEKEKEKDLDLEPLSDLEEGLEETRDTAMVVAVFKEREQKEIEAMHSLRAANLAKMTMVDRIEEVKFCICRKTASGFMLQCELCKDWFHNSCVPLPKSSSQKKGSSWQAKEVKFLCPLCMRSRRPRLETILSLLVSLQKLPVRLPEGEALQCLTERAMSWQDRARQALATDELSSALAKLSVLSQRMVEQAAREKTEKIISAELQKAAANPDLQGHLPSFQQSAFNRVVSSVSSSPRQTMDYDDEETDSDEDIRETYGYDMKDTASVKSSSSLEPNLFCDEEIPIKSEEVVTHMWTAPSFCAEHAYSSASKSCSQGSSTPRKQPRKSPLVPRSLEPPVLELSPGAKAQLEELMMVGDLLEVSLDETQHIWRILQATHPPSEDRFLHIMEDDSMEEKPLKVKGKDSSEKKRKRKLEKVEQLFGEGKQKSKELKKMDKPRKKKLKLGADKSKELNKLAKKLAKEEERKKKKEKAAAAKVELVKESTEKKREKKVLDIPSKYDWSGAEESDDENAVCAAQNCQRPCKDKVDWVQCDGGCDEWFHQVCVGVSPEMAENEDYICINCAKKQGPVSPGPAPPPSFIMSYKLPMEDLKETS

Row | SMILES | IC50 [µM]
1 | CCc1c(C)[nH]c2c(-c3nnc(C(N)=O)o3)cnn2c1=O [Example 56, 5-(6-Ethyl-5-methyl-7-oxo-4,7-dihydropyrazolo[1,5-a]pyrimidin-3-yl)-1,3,4-oxadiazole-2-carboxamide] | 0.276
2 | CCc1c(C)[nH]c2c(-c3nc(C(N)=O)no3)cnn2c1=O [Example 58, 5-(6-Ethyl-5-methyl-7-oxo-4,7-dihydropyrazolo[1,5-a]pyrimidin-3-yl)-1,2,4-oxadiazole-3-carboxamide] | 0.332
3 | CCc1c(C)[nH]c2c(-c3cnn(-c4nccc5ccccc45)c3)cnn2c1=O [Example 66, 6-ethyl-3-(1-(isoquinolin-1-yl)-1H-pyrazol-4-yl)-5-methylpyrazolo[1,5-a]pyrimidin-7(4H)-one] | 0.861
4 | CCc1c(C)[nH]c2c(-c3cnn(-c4cc5ccccc5cn4)c3)cnn2c1=O [Example 68, 6-ethyl-3-(1-(isoquinolin-3-yl)-1H-pyrazol-4-yl)-5-methylpyrazolo[1,5-a]pyrimidin-7(4H)-one] | 0.0369
5 | CCc1c(C)[nH]c2c(-c3cnn(-c4cccnn4)c3)cnn2c1=O [Example 69, 6-ethyl-5-methyl-3-(1-(pyridazin-3-yl)-1H-pyrazol-4-yl)pyrazolo[1,5-a]pyrimidin-7(4H)-one] | 0.233
6 | CCc1c(C)[nH]c2c(-c3cnn(-c4cccc(OC)n4)c3)cnn2c1=O [Example 70, 6-ethyl-3-(1-(6-methoxypyridin-2-yl)-1H-pyrazol-4-yl)-5-methylpyrazolo[1,5-a]pyrimidin-7(4H)-one] | 3.73
7 | CCc1c(C)[nH]c2c(-c3cnn(-c4cnccn4)c3)cnn2c1=O [Example 72, 6-ethyl-5-methyl-3-(1-(pyrazin-2-yl)-1H-pyrazol-4-yl)pyrazolo[1,5-a]pyrimidin-7(4H)-one] | 0.076
8 | CCc1c(C)[nH]c2c(-n3cnc(C(=O)NC)c3)cnn2c1=O [Example 74, 1-(6-ethyl-5-methyl-7-oxo-4,7-dihydropyrazolo[1,5-a]pyrimidin-3-yl)-N-methyl-1H-imidazole-4-carboxamide] | 0.996
9 | CCc1c(C)[nH]c2c(-n3cnc(C(=O)N(C)C)c3)cnn2c1=O [Example 75, 1-(6-ethyl-5-methyl-7-oxo-4,7-dihydropyrazolo[1,5-a]pyrimidin-3-yl)-N,N-dimethyl-1H-imidazole-4-carboxamide] | 0.178
10 | CCc1c(C)[nH]c2c(-n3ccnc3C)cnn2c1=O [Example 77, 6-ethyl-5-methyl-3-(2-methyl-1H-imidazol-1-yl)pyrazolo[1,5-a]pyrimidin-7(4H)-one] | 3.38
11 | CCc1c(-c2ccccc2)[nH]c2c(-n3ccnc3)cnn2c1=O [Example 79, 6-ethyl-3-(1H-imidazol-1-yl)-5-phenylpyrazolo[1,5-a]pyrimidin-7(4H)-one] | 43.2
12 | CCc1c(C)[nH]c2c(-n3cnc(I)c3)cnn2c1=O [Example 80, 6-ethyl-3-(4-iodo-1H-imidazol-1-yl)-5-methylpyrazolo[1,5-a]pyrimidin-7(4H)-one] | 29.4
13 | CCc1c(C)[nH]c2c(-n3cncc3I)cnn2c1=O [Example 81, 6-ethyl-3-(5-iodo-1H-imidazol-1-yl)-5-methylpyrazolo[1,5-a]pyrimidin-7(4H)-one] | 3.05

Now from value to compound:

Row | IC50 [µM] | SMILES
14 | 0.268 | CCc1c(C)[nH]c2c(-c3nnc(-c4ccccn4)o3)cnn2c1=O [Example 57, 6-Ethyl-5-methyl-3-(5-(pyridin-2-yl)-1,3,4-oxadiazol-2-yl)pyrazolo[1,5-a]pyrimidin-7(4H)-one]
15 | 0.518 | CCc1c(C)[nH]c2c(-c3nc(-c4ccccn4)no3)cnn2c1=O [Example 59, 6-Ethyl-5-methyl-3-(3-(pyridin-2-yl)-1,2,4-oxadiazol-5-yl)pyrazolo[1,5-a]pyrimidin-7(4H)-one]
16 | 4 | CCc1c(C)[nH]c2c(-c3cc(-c4ccccn4)on3)cnn2c1=O [Example 60, 6-Ethyl-5-methyl-3-(5-(pyridin-2-yl)isoxazol-3-yl)pyrazolo[1,5-a]pyrimidin-7(4H)-one]
17 | 0.363 | CCc1c(C)[nH]c2c(-c3cnn(-c4ncccc4C)c3)cnn2c1=O [Example 67, 6-ethyl-5-methyl-3-(1-(3-methylpyridin-2-yl)-1H-pyrazol-4-yl)pyrazolo[1,5-a]pyrimidin-7(4H)-one]
18 | 0.0263 | CCc1c(C)[nH]c2c(-c3cnn(-c4cc(C)ccn4)c3)cnn2c1=O [Example 71, 6-ethyl-5-methyl-3-(1-(4-methylpyridin-2-yl)-1H-pyrazol-4-yl)pyrazolo[1,5-a]pyrimidin-7(4H)-one]
19 | 0.0537 | Cc1[nH]c2c(-n3cnc(-c4ccccn4)c3)cnn2c(=O)c1C [Example 73, 5,6-dimethyl-3-(4-(pyridin-2-yl)-1H-imidazol-1-yl)pyrazolo[1,5-a]pyrimidin-7(4H)-one]
20 | 80 | CCc1c(C)[nH]c2c(-n3cnc4ccccc43)cnn2c1=O [Example 82, 3-(1H-benzo[d]imidazol-1-yl)-6-ethyl-5-methylpyrazolo[1,5-a]pyrimidin-7(4H)-one]

target: T1, KDM5A; experiment: KDM5A Demethylase Assay (TR-FRET Assay-C); format: biochemical; settings: full length recombinant Flag tagged KDM5A, 2 nM, HEPES pH 7.0, 1 μM α-ketoglutarate, read-out: C KDM5A HTRF (IC50)
Procedure: Full length recombinant Flag tagged KDM5A protein was purified from Sf9 insect cells. The demethylation reaction buffer contained 50 mM HEPES pH 7.0, 0.01% Triton X-100, 0.5 mM ascorbate, 2 mM DTT, 1 μM α-ketoglutarate, and 100 μM Fe2(NH4)2(SO4)2. In a 10 μL demethylation reaction system, 2 nM recombinant KDM5A was added to compounds in the above buffer (Vt 5 uL) in a 384 well Proxi Plate (Perkin Elmer Corp.) and then 0.1 μM biotinylated H3K9me1 peptide (1-21 aa, New England Peptide, Vt 5 uL) was added to initiate the reaction (Vt 10 uL). (All protein/reagent concentrations are final concentrations.) Reactions were incubated for 30 minutes at room temperature, and then quenched by addition of 5 uL stop buffer (3 mM EDTA, 50 mM TrisCl pH 7.5, 0.01% Triton X-100, 0.01 mg/mL BSA) followed by addition of 5 uL of detection reagents (buffer as above without EDTA but with addition of 200 nM SA-XL665 (CisBio) and 2 nM Eu(W1024)-anti-H3K4Me1-2 antibody (PerkinElmer)). After a 30 minute incubation assays were read on a Perkin-Elmer Envision equipped with appropriate filters. IC50s were calculated using standard dose-response equations and relative to a Max (no inhibition) and Min (no enzyme or quenched enzyme) controls.

Row | IC50 [µM] | SMILES
21 | 0.0332 | Cc1ccc(-n2cc(-c3cnn4c(=O)c(C5CC5)c(C)[nH]c34)cn2)nc1 [Example 27, 6-cyclopropyl-5-methyl-3-(1-(5-methylpyridin-2-yl)-1H-pyrazol-4-yl)pyrazolo[1,5-a]pyrimidin-7(4H)-one]
22 | 0.0322 | O=c1c2c([nH]c3c(-c4cnn(-c5ccccn5)c4)cnn13)CCC2 [Example 42, 3-(1-(pyridin-2-yl)-1H-pyrazol-4-yl)-6,7-dihydro-4H-cyclopenta[d]pyrazolo[1,5-a]pyrimidin-8(5H)-one]
23 | 0.0234 | Cc1[nH]c2c(-n3cnc(-c4ccccn4)c3)cnn2c(=O)c1C(C)C [Example 46, 6-isopropyl-5-methyl-3-(4-(pyridin-2-yl)-1H-imidazol-1-yl)pyrazolo[1,5-a]pyrimidin-7(4H)-one]
